Assay results published in ChEMBL document CHEMBL3885881, “DrugMatrix”.

Species on record: Rattus norvegicus
Assay: DrugMatrix - Regimen: Daily Repeat
Assay type: toxicity, organism-based, Sprague-Dawley
Design: regimen Daily Repeat, gender Male, age 6-8 weeks
Conditions: in vivo, po, route oral GAVAGE, […]; for ABSOLUTE BASOPHIL / BASOPHIL / NUCLEATED RED BLOOD CELLS / ABSOLUTE EOSINOPHIL / ABSOLUTE LYMPHOCYTE / ABSOLUTE MONOCYTE / ABSOLUTE SEGMENTED NEUTROPHIL / EOSINOPHIL / ERYTHROCYTE COUNT / HEMATOCRIT / HEMOGLOBIN / LEUKOCYTE COUNT / LYMPHOCYTE / MEAN CORPUSCULAR HEMOGLOBIN / MEAN CORPUSCULAR HEMOGLOBIN CONCENTRATION / MEAN CORPUSCULAR VOLUME / MONOCYTE / NEUTROPHIL / PLATELET COUNT: tissue Blood; for ALANINE AMINOTRANSFERASE / ALBUMIN / ALKALINE PHOSPHATASE / ASPARTATE AMINOTRANSFERASE / BLOOD UREA NITROGEN / CARBON DIOXIDE / CHLORIDE / CHOLESTEROL / CREATINE PHOSPHOKINASE / CREATININE / GLUCOSE / LACTATE DEHYDROGENASE / LIPASE / PHOSPHORUS / POTASSIUM / SODIUM / TOTAL BILIRUBIN / TOTAL PROTEIN / URIC ACID: tissue Plasma
[1] = 0 mg/kg, 72 h, dose level Control, time 3 day
[2] = 0 mg/kg, 120 h, dose level Control, time 5 day
[3] = 52 mg/kg, 72 h, dose level Low, time 3 day
[4] = 52 mg/kg, 120 h, dose level Low, time 5 day
[5] = 89 mg/kg, 72 h, dose level M1, time 3 day
[6] = 89 mg/kg, 120 h, dose level M1, time 5 day

For `Clc1ccccc1C(c1ccccc1)(c1ccccc1)n1ccnc1` [CLOTRIMAZOLE], the “ABSOLUTE BASOPHIL” value [1] was 0 CELLS/uL, the BASOPHIL [1] was 0% and the “NUCLEATED RED BLOOD CELLS” value [1] was 0 /100WBC. For the same molecule, the “ABSOLUTE BASOPHIL” value [2] was 0 CELLS/uL, the BASOPHIL [2] was 0% and the “ABSOLUTE BASOPHIL” value [3] was 0 CELLS/uL. The “ABSOLUTE EOSINOPHIL” value [3] was 0 CELLS/uL, the “ABSOLUTE LYMPHOCYTE” value [3] was 7378.33 CELLS/uL and the “ABSOLUTE MONOCYTE” value [3] was 76.67 CELLS/uL. The “ABSOLUTE SEGMENTED NEUTROPHIL” value [3] was 611.67 CELLS/uL, the BASOPHIL [3] was 0% and the EOSINOPHIL [3] was 0%. The “ERYTHROCYTE COUNT” value [3] was 4.96 x10E6/uL, the HEMATOCRIT [3] was 32.7% and the HEMOGLOBIN [3] was 12.97 G/DL. For the same molecule, the “LEUKOCYTE COUNT” value [3] was 8.07 x10E3/uL, the LYMPHOCYTE [3] was 91.33% and the “MEAN CORPUSCULAR HEMOGLOBIN” value [3] was 26.17 pg. For the same molecule, the “MEAN CORPUSCULAR HEMOGLOBIN CONCENTRATION” value [3] was 39.67 G/DL, the “MEAN CORPUSCULAR VOLUME” value [3] was 65.97 fL and the MONOCYTE [3] was 1%. The NEUTROPHIL [3] was 7.67%, the “NUCLEATED RED BLOOD CELLS” value [3] was 0 /100WBC and the “PLATELET COUNT” value [3] was 996.33 x10E3/uL. The “ALANINE AMINOTRANSFERASE” value [3] was 116 u/L, the ALBUMIN [3] was 3.73 G/DL and the “ALKALINE PHOSPHATASE” value [3] was 475.33 u/L. For the same molecule, the “ASPARTATE AMINOTRANSFERASE” value [3] was 102.67 u/L, the “BLOOD UREA NITROGEN” value [3] was 13.33 mg/dL and the “CARBON DIOXIDE” value [3] was 38 mmol/L. For the same molecule, the CHLORIDE [3] was 99 MEQ/L, the CHOLESTEROL [3] was 69.33 mg/dL and the “CREATINE PHOSPHOKINASE” value [3] was 256 u/L. For the same molecule, the CREATININE [3] was 0.12 mg/dL, the GLUCOSE [3] was 158 mg/dL and the “LACTATE DEHYDROGENASE” value [3] was 99 u/L. For the same molecule, the LIPASE [3] was 11 u/L, the PHOSPHORUS [3] was 9.1 mg/dL and the POTASSIUM [3] was 5.46 MEQ/L. For the same molecule, the SODIUM [3] was 142.67 MEQ/L, the “TOTAL BILIRUBIN” value [3] was 0.17 mg/dL and the “TOTAL PROTEIN” value [3] was 5.43 G/DL. The “URIC ACID” value [3] was 0.57 mg/dL, the “ABSOLUTE BASOPHIL” value [4] was 0 CELLS/uL and the “ABSOLUTE EOSINOPHIL” value [4] was 0 CELLS/uL. For the same molecule, the “ABSOLUTE LYMPHOCYTE” value [4] was 8088.33 CELLS/uL, the “ABSOLUTE MONOCYTE” value [4] was 127.33 CELLS/uL and the “ABSOLUTE SEGMENTED NEUTROPHIL” value [4] was 651 CELLS/uL. The BASOPHIL [4] was 0%, the EOSINOPHIL [4] was 0% and the “ERYTHROCYTE COUNT” value [4] was 5.31 x10E6/uL. For the same molecule, the HEMATOCRIT [4] was 34.07%, the HEMOGLOBIN [4] was 13.3 G/DL and the “LEUKOCYTE COUNT” value [4] was 8.87 x10E3/uL. For the same molecule, the LYMPHOCYTE [4] was 91.67%, the “MEAN CORPUSCULAR HEMOGLOBIN” value [4] was 25.1 pg and the “MEAN CORPUSCULAR HEMOGLOBIN CONCENTRATION” value [4] was 39.1 G/DL. The “MEAN CORPUSCULAR VOLUME” value [4] was 64.2 fL, the MONOCYTE [4] was 1.33% and the NEUTROPHIL [4] was 7%. The “NUCLEATED RED BLOOD CELLS” value [4] was 0 /100WBC, the “PLATELET COUNT” value [4] was 1063.67 x10E3/uL and the “ALANINE AMINOTRANSFERASE” value [4] was 68 u/L. For the same molecule, the ALBUMIN [4] was 3.9 G/DL, the “ALKALINE PHOSPHATASE” value [4] was 421.33 u/L and the “ASPARTATE AMINOTRANSFERASE” value [4] was 83.33 u/L. For the same molecule, the “BLOOD UREA NITROGEN” value [4] was 13.33 mg/dL, the “CARBON DIOXIDE” value [4] was 27.33 mmol/L and the CHLORIDE [4] was 104.33 MEQ/L. For the same molecule, the CHOLESTEROL [4] was 79.67 mg/dL, the “CREATINE PHOSPHOKINASE” value [4] was 203.67 u/L and the CREATININE [4] was 0.34 mg/dL. For the same molecule, the GLUCOSE [4] was 183 mg/dL, the “LACTATE DEHYDROGENASE” value [4] was 97.67 u/L and the LIPASE [4] was 12.67 u/L. It also gave a PHOSPHORUS [4] of 12.3 mg/dL, a POTASSIUM [4] of 5.8 MEQ/L and an SODIUM [4] of 144.6 MEQ/L. For the same molecule, the “TOTAL BILIRUBIN” value [4] was 0.1 mg/dL, the “TOTAL PROTEIN” value [4] was 6.03 G/DL and the “URIC ACID” value [4] was 0.63 mg/dL. The “ABSOLUTE BASOPHIL” value [5] was 0 CELLS/uL, the “ABSOLUTE EOSINOPHIL” value [5] was 25.67 CELLS/uL and the “ABSOLUTE LYMPHOCYTE” value [5] was 8596 CELLS/uL. The “ABSOLUTE MONOCYTE” value [5] was 0 CELLS/uL, the “ABSOLUTE SEGMENTED NEUTROPHIL” value [5] was 345 CELLS/uL and the BASOPHIL [5] was 0%. The EOSINOPHIL [5] was 0.33%, the “ERYTHROCYTE COUNT” value [5] was 5.65 x10E6/uL and the HEMATOCRIT [5] was 35.6%. For the same molecule, the HEMOGLOBIN [5] was 13.1 G/DL, the “LEUKOCYTE COUNT” value [5] was 8.97 x10E3/uL and the LYMPHOCYTE [5] was 95.33%. For the same molecule, the “MEAN CORPUSCULAR HEMOGLOBIN” value [5] was 23.17 pg, the “MEAN CORPUSCULAR HEMOGLOBIN CONCENTRATION” value [5] was 36.8 G/DL and the “MEAN CORPUSCULAR VOLUME” value [5] was 63.03 fL. For the same molecule, the MONOCYTE [5] was 0%, the NEUTROPHIL [5] was 4.33% and the “NUCLEATED RED BLOOD CELLS” value [5] was 0 /100WBC. For the same molecule, the “PLATELET COUNT” value [5] was 1000.33 x10E3/uL, the “ALANINE AMINOTRANSFERASE” value [5] was 74.67 u/L and the ALBUMIN [5] was 3.87 G/DL. For the same molecule, the “ALKALINE PHOSPHATASE” value [5] was 348.33 u/L, the “ASPARTATE AMINOTRANSFERASE” value [5] was 101.33 u/L and the “BLOOD UREA NITROGEN” value [5] was 15.67 mg/dL. The “CARBON DIOXIDE” value [5] was 31.33 mmol/L, the CHLORIDE [5] was 99.67 MEQ/L and the CHOLESTEROL [5] was 51 mg/dL. For the same molecule, the “CREATINE PHOSPHOKINASE” value [5] was 324.67 u/L, the CREATININE [5] was 0.17 mg/dL and the GLUCOSE [5] was 143.67 mg/dL. For the same molecule, the “LACTATE DEHYDROGENASE” value [5] was 156.33 u/L, the LIPASE [5] was 11 u/L and the PHOSPHORUS [5] was 10.37 mg/dL. The POTASSIUM [5] was 5.81 MEQ/L, the SODIUM [5] was 144 MEQ/L and the “TOTAL BILIRUBIN” value [5] was 0.13 mg/dL. The “TOTAL PROTEIN” value [5] was 5.63 G/DL, the “URIC ACID” value [5] was 0.4 mg/dL and the “ABSOLUTE BASOPHIL” value [6] was 0 CELLS/uL. The “ABSOLUTE EOSINOPHIL” value [6] was 0 CELLS/uL, the “ABSOLUTE LYMPHOCYTE” value [6] was 14137.33 CELLS/uL and the “ABSOLUTE MONOCYTE” value [6] was 157.33 CELLS/uL. The “ABSOLUTE SEGMENTED NEUTROPHIL” value [6] was 1305.33 CELLS/uL, the BASOPHIL [6] was 0% and the EOSINOPHIL [6] was 0%. The “ERYTHROCYTE COUNT” value [6] was 5.79 x10E6/uL, the HEMATOCRIT [6] was 36.4% and the HEMOGLOBIN [6] was 13.37 G/DL. For the same molecule, the “LEUKOCYTE COUNT” value [6] was 15.6 x10E3/uL, the LYMPHOCYTE [6] was 91% and the “MEAN CORPUSCULAR HEMOGLOBIN” value [6] was 23.1 pg. The “MEAN CORPUSCULAR HEMOGLOBIN CONCENTRATION” value [6] was 36.73 G/DL, the “MEAN CORPUSCULAR VOLUME” value [6] was 62.87 fL and the MONOCYTE [6] was 1%. The NEUTROPHIL [6] was 8%, the “NUCLEATED RED BLOOD CELLS” value [6] was 0 /100WBC and the “PLATELET COUNT” value [6] was 1140.67 x10E3/uL. For the same molecule, the “ALANINE AMINOTRANSFERASE” value [6] was 77.33 u/L, the ALBUMIN [6] was 4.17 G/DL and the “ALKALINE PHOSPHATASE” value [6] was 461 u/L. The “ASPARTATE AMINOTRANSFERASE” value [6] was 103 u/L, the “BLOOD UREA NITROGEN” value [6] was 13.67 mg/dL and the “CARBON DIOXIDE” value [6] was 23.67 mmol/L. For the same molecule, the CHLORIDE [6] was 102 MEQ/L, the CHOLESTEROL [6] was 58 mg/dL and the “CREATINE PHOSPHOKINASE” value [6] was 255 u/L. The CREATININE [6] was 0.13 mg/dL, the GLUCOSE [6] was 97.33 mg/dL and the “LACTATE DEHYDROGENASE” value [6] was 293 u/L. For the same molecule, the LIPASE [6] was 38.67 u/L, the PHOSPHORUS [6] was 9.33 mg/dL and the POTASSIUM [6] was 7.02 MEQ/L. The SODIUM [6] was 147.95 MEQ/L, the “TOTAL BILIRUBIN” value [6] was 0.33 mg/dL and the “TOTAL PROTEIN” value [6] was 6.23 G/DL. For the same molecule, the “URIC ACID” value [6] was 1.27 mg/dL.
